Molecular target: T1, G1 APOL1 (Homo sapiens, UniProt O14791, I384M/S342G)
T1 construct: expressed in transfected cells
T1 sequence (O14791 28-398 S342G/I384M): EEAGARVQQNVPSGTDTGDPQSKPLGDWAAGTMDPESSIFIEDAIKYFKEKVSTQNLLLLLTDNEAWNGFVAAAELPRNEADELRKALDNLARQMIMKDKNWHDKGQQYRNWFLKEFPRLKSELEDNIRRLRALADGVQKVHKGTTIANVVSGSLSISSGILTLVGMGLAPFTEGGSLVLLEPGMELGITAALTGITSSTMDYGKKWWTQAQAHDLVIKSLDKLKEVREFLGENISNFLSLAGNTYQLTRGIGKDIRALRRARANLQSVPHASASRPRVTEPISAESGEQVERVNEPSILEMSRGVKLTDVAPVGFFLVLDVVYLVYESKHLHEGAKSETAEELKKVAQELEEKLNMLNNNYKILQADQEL
Test: Acute APOL1 Thallium Assay with inducible stable clones of HEK 293 cells
Assay type: cell-based
Conditions: HEK T-Rex tetracycline-inducible cells expressing G1 APOL1 (clone G1 DC3.25); inhibition of thallium flux rate
Description: Acute APOL1 Thallium Assay with Inducible Stable Clones of HEK 293 Cells
Apolipoprotein L1 (APOL1) proteins form potassium-permeable cation pores in the plasma membrane. APOL1 risk variants (G1 and G2) induce greater potassium flux than G0 in HEK293 cells. This assay exploits the permeability of thallium (T1+) through ligand-gated potassium channels. The dye produces a bright fluorescent signal upon binding to T1+ conducted through potassium channels. The intensity of the T1+ signal is proportional to the number of potassium channels in the open state. Therefore, it provides a functional indication of the potassium channel activities. During the initial dye-loading step, the T1+ indicator dye as an acetoxymethyl (AM) ester enters the cells through passive diffusion. Cytoplasm esterases cleave the AM ester and relieve its active thallium-sensitive form. The cells are then stimulated with T1+. The increase of fluorescence in the assay represents the influx of T1+ into the cell specifically through the potassium channel (i.e. through APOL1 pores), providing a functional measurement of potassium channel/pore activity. The Thallium assay is conducted with cells expressing G1 APOL1.
APOL1 Cell Line (HEK T-Rex Stable Inducible Cell Line) • HEK T-Rex System • Tetracycline (Tet) inducible mammalian expression system. • Stably express the Tet repressor to regulate transcription. • Expression under the full-length CMV promoter. • APOL1 stable inducible cell line Clone used: G1 DC3.25
Tissue Culture Media • Cell Culture Medium • DMEM +10% FBS +P/S +5 μg/mL blasticidin+1 μg/mL puromycin. • 500 mL DMEM +55 mL FBS +5 mL P/S +280 μL blasticidin S HCl (10 mg/mL)+56 μL puromycin (10 mg/mL). • Cell Assay Medium • DMEM with 2% FBS+pen strep.
Instruments and Equipment • Nuaire cell culture hood, Cat. No. 540-600 • 37° C./5% CO2 incubator link to robotic arm, Liconic: STX110 • Molecular Devices FLIPR^Tetra High throughput cellular screening system, Cat. No. FT0324, Molecular Devices • ThermoFisher MultiDrop 384, Cat. No. 5840300 • Biotek Microfill, Cat. No. ASF1000A-4145 • BioRad TC10 cell counter, Cat. No. 145-0010 Assay Procedures
Cells Scaled Up from Frozen Vials • APOL1 G1 3.25 (HEK293 T-Rex) frozen vials: 5 million cells per vial • Step 1, Day 1: Defrost frozen vial into T-225. • Step 2, Day 5: (when 85% confluent): Split one T-225 at 3×10^6 cells per flask. • Step 3, Day 8: Splits cells to set up for the assay plates as described below.
T-Rex APOL1 HEK cells are split twice per week to keep the confluence state below 85% of the culture flask surface area. Cells can be kept until passage 25. • Cell Culture Medium • DMEM high glucose +10% FBS, +P/S, +5 μg/mL blasticidin, +1 μg/mL puromycin. • 500 mL DMEM, +55 mL FBS, +5 mL P/S, +280 μL blasicidin 10 mg/mL, +56 μL Puromycin 10 mg/mL. • Assay Media • Opti-MEM reduced serum medium from Invitrogen.
Preparation of Cell Assay Plates • Culture medium is removed from the x cm^2 T-flask by aspiration. • The cell monolayer is rinsed with PBS 1× at room temperature. PBS is removed by aspiration. • Cells are trypsinized using Trypsin. • The flasks are incubated at room temperature for 2-3 minutes. • Complete DMEM medium is then added. Cell suspension is then transferred to a 50 mL Falcon polypropylene tube. • Cells are then counted using a Biorad TC10 cell counter and the required amount of cells are centrifuged at 1200 RPM for 5 minutes. Required amount is 1.3×10^6 cells/mL APOL1 T-Rex HEK cells. • The pellet is suspended in the assay medium. • Using the MultiDrop, add 20 μL to each well (corresponds to 26000 cells total per well) of a 384-well black, transparent, flat bottom Poly-D coated plate. • Tetracycline as prepared in the following section is added to the cells before plating to induce APOL1 expression. • Plates are left at room temperature for 20 to 30 minutes before incubation at 37° C. and 5% CO2. […]

Row | IC50 | Compound
1 | < 0.25 µM | O=C(CCc1c(-c2ccc(Cl)cc2)[nH]c2c(Cl)cccc12)N[C@@H]1C(=O)NC[C@H]1O [Compound 113, 3-[7-chloro-2-(4-chlorophenyl)-1H-indol-3-yl]-N-[(3S,4R)-4-hydroxy-2-oxo-pyrrolidin-3-yl]propanamide]
2 | > 1 µM | O=C(CCc1c(-c2ccc(F)cc2)[nH]c2c(F)cc(F)cc12)N[C@H]1C[C@H](CF)NC1=O [Compound 10]
3 | < 0.25 µM | Cc1cccc2c(CCC(=O)N[C@@H]3C(=O)NC[C@H]3O)c(-c3ccccc3)[nH]c12 [Compound 69]
4 | 0.25 to 1 µM | C[C@@H](Cc1c(-c2ccc(F)cc2)[nH]c2c(F)cc(F)cc12)C(=O)N[C@@H]1C(=O)NC[C@H]1O [Compound 91, (2S)-3-[5,7-difluoro-2-(4-fluorophenyl)-1H-indol-3-yl]-N-[(3S,4R)-4-hydroxy-2-oxo-pyrrolidin-3-yl]-2-methyl-propanamide]
5 | < 0.25 µM | Cc1c(F)ccc2c(CCC(=O)N[C@@H]3C(=O)NC[C@H]3O)c(-c3ccc(F)cc3)[nH]c12 [Compound 83]
6 | < 0.25 µM | O=C(CCc1c(-c2ccc(OC(F)F)cc2)[nH]c2ccccc12)N[C@@H]1C(=O)NC[C@H]1O [Compound 117]
7 | < 0.25 µM | O=C(CCc1c(-c2ccc(F)cc2)[nH]c2ccc(Cl)cc12)N[C@@H]1C(=O)NC[C@H]1O [Compound 45, 3-[5-chloro-2-(4-fluorophenyl)-1H-indol-3-yl]-N-[(3S,4R)-4-hydroxy-2-oxo-pyrrolidin-3-yl]propanamide]
8 | < 0.25 µM | Cc1c(F)ccc2c(CCC(=O)N[C@@H]3C(=O)NC[C@H]3O)c(-c3ccccc3)[nH]c12 [Compound 84]
9 | 0.25 to 1 µM | COc1cc(F)cc2c(CCC(=O)N[C@H]3CCNC3=O)c(-c3ccc(F)cc3)[nH]c12 [Compound 41]
10 | < 0.25 µM | O=C(CCc1c(-c2ccc(F)cc2)[nH]c2cc(F)c(F)cc12)N[C@@H]1C(=O)NC[C@H]1O [Compound 81]
11 | 0.25 to 1 µM | CC(C)(O)c1cccc2c(CCC(=O)N[C@@H]3C(=O)NC[C@H]3O)c(-c3ccccc3)[nH]c12 [Compound 66]
12 | 0.25 to 1 µM | O=C(CCc1c(-c2ccc(F)cc2)[nH]c2ccccc12)N[C@H]1C(=O)NC[C@H]1O [Compound 133, 3-[2-(4-fluorophenyl)-1H-indol-3-yl]-N-[(3R,4R)-4-hydroxy-2-oxo-pyrrolidin-3-yl]propanamide]
13 | 0.25 to 1 µM | Cc1cc(F)ccc1-c1[nH]c2ccccc2c1CCC(=O)N[C@@H]1C(=O)NC[C@H]1O [Compound 119]
14 | > 1 µM | COc1cccc2c(CCC(=O)N[C@H]3CCNC3=O)c(-c3ccc(F)cc3)[nH]c12 [Compound 77]
15 | > 1 µM | CC(CC(=O)N[C@@H]1C(=O)NC[C@H]1O)c1c(-c2ccc(F)cc2)[nH]c2c(F)cc(F)cc12 (mixture of isomers) [Compound 97, 3-[5,7-difluoro-2-(4-fluorophenyl)-1H-indol-3-yl]-N-[(3S,4R)-4-hydroxy-2-oxo-pyrrolidin-3-yl]butanamide]
16 | > 1 µM | N#Cc1cccc(-c2[nH]c3ccc(F)cc3c2CCC(=O)N[C@H]2CCNC2=O)c1 [Compound 53]
17 | < 0.25 µM | O=C(CSc1c(-c2ccc(F)cc2)[nH]c2ccccc12)N[C@@H]1C(=O)NC[C@H]1O [Compound 130, 2-[[2-(4-fluorophenyl)-1H-indol-3-yl]sulfanyl]-N-[(3S,4R)-4-hydroxy-2-oxo-pyrrolidin-3-yl]acetamide]
18 | < 0.25 µM | O=C(CCc1c(-c2ccc(F)cc2)[nH]c2c(F)cc(Cl)cc12)N[C@H]1CCNC1=O [Compound 32]
19 | < 0.25 µM | O=C(CCc1c(-c2ccc(F)cc2)[nH]c2c(C(F)(F)F)cccc12)N[C@@H]1C(=O)NC[C@H]1O [Compound 111, 3-[2-(4-fluorophenyl)-7-(trifluoromethyl)-1H-indol-3-yl]-N-[(3S,4R)-4-hydroxy-2-oxo-pyrrolidin-3-yl]propanamide]
20 | > 1 µM | O=C(CCc1c(-c2ccccc2)[nH]c2c(C3=CCOC3)cccc12)N[C@@H]1C(=O)NC[C@H]1O [Compound 64]
21 | < 0.25 µM | O=C(CCc1c(-c2ccccc2)[nH]c2c(Cl)cc(F)cc12)N[C@@H]1C(=O)NC[C@H]1O [Compound 35]
22 | 0.25 to 1 µM | O=C(CCc1c(-c2ccc(F)cc2)[nH]c2c(F)c(F)ccc12)N[C@H]1CCNC1=O [Compound 57]
23 | > 1 µM | O=C(CCc1c(-c2ccc(F)cc2)[nH]c2c(F)cc(F)cc12)N[C@H]1C[C@@H](CF)NC1=O [Compound 9]

Row | Compound | IC50
24 | O=C(CCc1c(-c2ccc(F)cc2)[nH]c2c(F)cc(F)cc12)N[C@H]1C(=O)NC[C@H]1O [Compound 15] | 0.25 to 1 µM
25 | O=C(CCc1c(-c2ccc(F)cc2)[nH]c2c(F)cc(F)cc12)N[C@H]1C(=O)NC[C@@H]1O [Compound 12] | 0.25 to 1 µM

Reference: US11618746B2, “Inhibitors of APOL1 and methods of using same” (Vertex Pharmaceuticals Incorporated, priority 2018, dated 2023)
